Molecules are shown by their SMILES.

The target of the assay is T1, hFAAH (Homo sapiens, UniProt O00519).
T1 construct: expressed in transfected cells; host or cells: HEK293-TRex (Invitrogen) stably transfected with hFAAH in the pcDNA5-Tet-off vector, or T84 human colon epithelial cells (endogenous hFAAH); used as a microsomal preparation
T1 sequence (O00519 1-579): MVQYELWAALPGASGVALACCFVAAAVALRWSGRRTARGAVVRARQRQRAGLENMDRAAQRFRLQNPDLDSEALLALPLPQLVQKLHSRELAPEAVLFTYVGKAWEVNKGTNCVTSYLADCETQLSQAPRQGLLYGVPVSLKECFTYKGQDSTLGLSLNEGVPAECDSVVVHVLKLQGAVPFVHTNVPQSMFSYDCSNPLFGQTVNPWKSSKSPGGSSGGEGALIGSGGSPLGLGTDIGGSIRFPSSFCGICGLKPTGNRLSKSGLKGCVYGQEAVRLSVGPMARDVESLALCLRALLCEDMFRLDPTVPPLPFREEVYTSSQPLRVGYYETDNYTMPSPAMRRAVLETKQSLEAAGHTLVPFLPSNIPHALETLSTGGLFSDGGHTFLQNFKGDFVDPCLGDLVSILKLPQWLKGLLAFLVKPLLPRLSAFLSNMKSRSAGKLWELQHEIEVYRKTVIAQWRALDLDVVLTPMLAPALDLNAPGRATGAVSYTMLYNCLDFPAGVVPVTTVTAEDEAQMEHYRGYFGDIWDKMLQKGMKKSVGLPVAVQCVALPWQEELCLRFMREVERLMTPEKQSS
Description: Fluorimetric assay with hFAAH microsomes (enzymatic, fluorescence based). The assay is classed as biochemical. The settings on record: compound at 1 uM, AA-AMC substrate. The protocol: Human cell line T84 (human colon epithelial cells), which expresses endogenous hFAAH, or HEK293-TRex cells (Invitrogen) stably transfected with hFAAH in the pcDNA5-Tet-off vector are cultured in medium containing DMEM, 10% FBS penicillin/streptomycin, glutamax, 200 μg/ml hygromycin and 0.5 μg/ml blasticidin. Cell collection is done 24 h after induction with doxycycline by first washing the cells with cold PBS and then incubating them with Versene before centrifugation. Cell pellets are then stored at −80° C. until needed. For homogenization, the cell pellets are thawed on ice […] and resuspended in homogenization buffer (50 mM HEPES (pH 7.4), 1 mM EDTA, 1 μM Pepstatin A, 100 μM Leupeptin, 0.1 mg/mL aprotinin). Cell suspensions are then homogenized on ice using the Polytron 1200 C at setting 6 for three 30-second intervals with 30-second rests. The suspension is centrifuged at 1000 g for 10 minutes at 4° C. and the supernatant is collected and further centrifuged at 24000 rpm for 30 minutes at 4° C. using an ultracentrifuge. Pellets are resuspended by adding in cold microsomal buffer (50 mM HEPES (pH 7.4) and 1 mM EDTA) and sheared through a 23-gauge needle five times, keeping the suspension on ice. Protein concentrations are determined using the BCA assay and aliquoted preparations are stored at −80° C. until needed.
Compound potency against hFAAH is determined using an enzymatic assay with a fluorescence readout. Briefly, experiments were carried out in a 96-well plate format (Corning Costar, # 3370) with a total well volume of 160 μL with components added in the following order: assay buffer (50 mM HEPES (pH 7.4), 1 mM EDTA, 1.4 mg/mL BSA), compound solutions (7 different concentrations per compound in duplicate), microsomal enzyme preparation (10 μg per well) and substrate [AA-AMC (arachadonyl 7-amino 4-methyl coumarin amide), 2 μM]. After a brief shaking, a kinetic read of the plate is obtained using a Tecan Safire II in kinetic mode for 275 cycles with excitation and emission wavelengths of 355 and 460 nm, respectively. Raw data is then processed and analyzed using Assay Explorer and GraphPad Prism.
The following compounds have been or can be prepared according to the methods of the invention. An enzymatic (fluorescence based) assay is performed as described above. In Table 1, activity of each compound is expressed as follows: • ++++ % Inhibition >75% • +++ % Inhibition >50% • ++ % Inhibition >25% • + % Inhibition <25%
Consider `COC(=O)c1ccc(S(=O)(=O)N2Cc3ncnc(Nc4cnc5ccccc5c4)c3C2)o1` [Compound 68, 5-[4-(Quinolin-3-ylamino)-5,7-dihydro-pyrrolo[3,4-d]pyrimidine-6-sulfonyl]-furan-2-carboxylic acid methyl ester], for which the inhibition (as a rule, the percentage by which the read-out fell short of the control) at 1 µM is above 75%. The figure for `O=C(NC1CCCCC1)N1Cc2ncnc(Nc3cnc4ccccc4c3)c2C1` [Compound 47, 4-(Quinolin-3-ylamino)-5,7-dihydro-pyrrolo[3,4-d]pyrimidine-6-carboxylic acid cyclohexylamide] is below 25%.

Take `c1ccc2ncc(Nc3ncnc4c3CN(Cc3ccnc5ccccc35)C4)cc2c1` [Compound 85, Quinolin-3-yl-(6-quinolin-4-ylmethyl-6,7-dihydro-5H-pyrrolo[3,4-d]pyrimidin-4-yl)-amine]: the inhibition at 1 µM is above 50%. The compound `O=S(=O)(Cc1ccccc1)N1Cc2ncnc(Nc3cnc4ccccc4c3)c2C1` [Compound 63, (6-Phenylmethanesulfonyl-6,7-dihydro-5H-pyrrolo[3,4-d]pyrimidin-4-yl)-quinolin-3-yl-amine] displayed an inhibition at 1 µM below 25%. With `Clc1ncc(CN2Cc3ncnc(Nc4cnc5ccccc5c4)c3C2)s1` [Compound 91, [6-(2-Chloro-thiazol-5-ylmethyl)-6,7-dihydro-5H-pyrrolo[3,4-d]pyrimidin-4-yl]-quinolin-3-yl-amine] the figure was above 50%. With `COc1ccccc1CN1Cc2ncnc(Nc3cnc4ccccc4c3)c2C1` [Compound 83, [6-(2-Methoxy-benzyl)-6,7-dihydro-5H-pyrrolo[3,4-d]pyrimidin-4-yl]-quinolin-3-yl-amine] the figure was above 75%; with `c1ccc(C2CC2)c(CN2Cc3ncnc(Nc4cnc5ccccc5c4)c3C2)c1` [Compound 112, [6-(2-Cyclopropyl-benzyl)-6,7-dihydro-5H-pyrrolo[3,4-d]pyrimidin-4-yl]-quinolin-3-yl-amine], above 75%.

On to `c1ccc(CN2Cc3ncnc(Nc4cnc5ccccc5c4)c3C2)cc1` [Compound 1, (6-Benzyl-6,7-dihydro-5H-pyrrolo[3,4-d]pyrimidin-4-yl)-quinolin-3-yl-amine], for which the inhibition at 1 µM was above 75%. The figure for `Cc1nc(C)c(CNC(=O)N2Cc3ncnc(Nc4cnc5ccccc5c4)c3C2)s1` [Compound 48, 4-(Quinolin-3-ylamino)-5,7-dihydro-pyrrolo[3,4-d]pyrimidine-6-carboxylic acid (2,4-dimethyl-thiazol-5-ylmethyl)-amide] is below 25%. Compound `Fc1ccccc1CN1Cc2ncnc(Nc3cnc4ccccc4c3)c2C1` [Compound 80, [6-(2-Fluoro-benzyl)-6,7-dihydro-5H-pyrrolo[3,4-d]pyrimidin-4-yl]-quinolin-3-yl-amine] showed an inhibition at 1 µM above 75%. Regarding `CCCCCN1Cc2ncnc(Nc3cnc4ccccc4c3)c2C1` [Compound 10, (6-Pentyl-6,7-dihydro-5H-pyrrolo[3,4-d]pyrimidin-4-yl)-quinolin-3-yl-amine], the inhibition at 1 µM is above 50%. With `CCCOc1ccccc1CN1Cc2ncnc(Nc3cnc4ccccc4c3)c2C1` [Compound 108, [6-(2-Propoxy-benzyl)-6,7-dihydro-5H-pyrrolo[3,4-d]pyrimidin-4-yl]-quinolin-3-yl-amine] the figure was above 50%. As to `Cc1csc(CN2Cc3ncnc(Nc4cnc5ccccc5c4)c3C2)n1` [Compound 77, [6-(4-Methyl-thiazol-2-ylmethyl)-6,7-dihydro-5H-pyrrolo[3,4-d]pyrimidin-4-yl]-quinolin-3-yl-amine], the inhibition at 1 µM is above 50%. With `Cc1nc(C)c(NC(=O)N2Cc3ncnc(Nc4cnc5ccccc5c4)c3C2)s1` [Compound 51, 4-(Quinolin-3-ylamino)-5,7-dihydro-pyrrolo[3,4-d]pyrimidine-6-carboxylic acid (2,4-dimethyl-thiazol-5-yl)-amide] the figure was below 25%; with `Cc1ccoc1CN1Cc2ncnc(Nc3cnc4ccccc4c3)c2C1` [Compound 86, [6-(3-Methyl-furan-2-ylmethyl)-6,7-dihydro-5H-pyrrolo[3,4-d]pyrimidin-4-yl]-quinolin-3-yl-amine], above 75%; with `Cc1c(CN2Cc3ncnc(Nc4cnc5ccccc5c4)c3C2)cnn1C` [Compound 26, [6-(1,5-Dimethyl-1H-pyrazol-4-ylmethyl)-6,7-dihydro-5H-pyrrolo[3,4-d]pyrimidin-4-yl]-quinolin-3-yl-amine], above 25%.

The compound `CC(C)(C)CN1Cc2ncnc(Nc3cnc4ccccc4c3)c2C1` [Compound 11, [6-(2,2-Dimethyl-propyl)-6,7-dihydro-5H-pyrrolo[3,4-d]pyrimidin-4-yl]-quinolin-3-yl-amine] displayed an inhibition at 1 µM above 25%. With `Cc1ccc(CN2Cc3ncnc(Nc4cnc5ccccc5c4)c3C2)c(C)c1` [Compound 93, [6-(2,4-Dimethyl-benzyl)-6,7-dihydro-5H-pyrrolo[3,4-d]pyrimidin-4-yl]-quinolin-3-yl-amine] the figure was above 25%; with `c1ccc2ncc(Nc3ncnc4c3CN(CC3CCOCC3)C4)cc2c1` [Compound 33, Quinolin-3-yl-[6-(tetrahydro-pyran-4-ylmethyl)-6,7-dihydro-5H-pyrrolo[3,4-d]pyrimidin-4-yl]-amine], above 75%.

Turning to `CSc1ccccc1CN1Cc2ncnc(Nc3cnc4ccccc4c3)c2C1` [Compound 102, [6-(2-Methylsulfanyl-benzyl)-6,7-dihydro-5H-pyrrolo[3,4-d]pyrimidin-4-yl]-quinolin-3-yl-amine], the inhibition at 1 µM was above 75%. With `Cc1ccsc1S(=O)(=O)N1Cc2ncnc(Nc3cnc4ccccc4c3)c2C1` [Compound 56, [6-(3-Methyl-thiophene-2-sulfonyl)-6,7-dihydro-5H-pyrrolo[3,4-d]pyrimidin-4-yl]-quinolin-3-yl-amine] the figure was above 25%. The figure for `c1cc(CN2Cc3ncnc(Nc4cnc5ccccc5c4)c3C2)c2c(c1)OCO2` [Compound 103, (6-Benzo[1,3]dioxol-4-ylmethyl-6,7-dihydro-5H-pyrrolo[3,4-d]pyrimidin-4-yl)-quinolin-3-yl-amine] is above 75%.

With `c1ccc2ncc(Nc3ncnc4c3CN(CC3CCCOC3)C4)cc2c1` (stereo not drawn) [Compound 16, Quinolin-3-yl-[6-(tetrahydro-pyran-3-ylmethyl)-6,7-dihydro-5H-pyrrolo[3,4-d]pyrimidin-4-yl]-amine], the inhibition at 1 µM is above 50%. The figure for `c1ccc2ncc(Nc3ncnc4c3CN(CC3CCSCC3)C4)cc2c1` [Compound 18, Quinolin-3-yl-[6-(tetrahydro-thiopyran-4-ylmethyl)-6,7-dihydro-5H-pyrrolo[3,4-d]pyrimidin-4-yl]-amine] is above 75%. The figure for `c1ccc2ncc(Nc3ncnc4c3CN(CC3CCC3)C4)cc2c1` [Compound 21, (6-Cyclobutylmethyl-6,7-dihydro-5H-pyrrolo[3,4-d]pyrimidin-4-yl)-quinolin-3-yl-amine] is above 50%; for `CCC(C)N1Cc2ncnc(Nc3cnc4ccccc4c3)c2C1` (stereo not drawn) [Compound 35, (6-sec-Butyl-6,7-dihydro-5H-pyrrolo[3,4-d]pyrimidin-4-yl)-quinolin-3-yl-amine] it is below 25%. `CCCC(C)N1Cc2ncnc(Nc3cnc4ccccc4c3)c2C1` (stereo not drawn) [Compound 42, [6-(1-Methyl-butyl)-6,7-dihydro-5H-pyrrolo[3,4-d]pyrimidin-4-yl]-quinolin-3-yl-amine] showed an inhibition at 1 µM above 25%.

The values are drawn from US20110257208A1, “COMPOUNDS USEFUL AS FAAH MODULATORS AND USES THEREOF” (priority 2008, published 2011).
